# Tested on: integrin α2β1 expression in A549 cells
# Test: Integrin α2β1 expression in A549 cells after doxorubicin treatment
# Format: cell-based, human
# Details: doxorubicin 4 μg/mL
smiles,measurement,setting,value
COc1cccc2c1C(=O)c1c(O)c3c(c(O)c1C2=O)C[C@@](O)(C(=O)CO)C[C@@H]3O[C@H]1C[C@H](N)[C@H](O)[C@H](C)O1 [doxorubicin],integrin α2 and β1 protein levels by Western blot after treatment,"48 h, semi-quantitative, p < 0.01",markedly higher level of both integrin proteins
same,integrin α2β1 expression by FACS after treatment,48 h vs wild-type,clear shift in the abundance of integrin α2β1
